# Test results from ChEMBL document CHEMBL5096149, “Recent Update on Targeting c-MYC G-Quadruplexes by Small Molecules for Anticancer Therapeutics” (J Med Chem, 2021).
# Columns and labels:
# [1] = system: Quadruplex DNA; assay: Thermal stabilization of c-MYC G-quadruplex DNA (unknown origin) assessed as change in melting temperature at 1:1 ratio in absence of K+ by FRET melting assay; assay type: nucleic-acid assay
# [2] = system: Quadruplex DNA; assay: Thermal stabilization of c-MYC G-quadruplex DNA (unknown origin) assessed as change in melting temperature at 1:1 ratio in presence of K+ by FRET melting assay; assay type: nucleic-acid assay
# [3] = system: Quadruplex DNA; assay: Binding affinity to c-MYC G-quadruplex DNA (unknown origin) assessed as association constant by fluorescence spectroscopy; assay type: nucleic-acid assay
# [4] = system: Quadruplex DNA; assay: Thermal stabilization of c-MYC G-quadruplex DNA (unknown origin) assessed as change in melting temperature at 1:5 ratio by circular dichroism spectroscopy; assay type: nucleic-acid assay
# [5] = system: Quadruplex DNA; assay: Binding affinity to c-MYC G-quadruplex DNA (unknown origin) assessed as association rate constant by fluorometric titration method; assay type: nucleic-acid assay
# [6] = system: Quadruplex DNA; assay: Thermal stabilization of c-MYC G-quadruplex DNA (unknown origin) assessed as change in melting temperature at 1:10 ratio by FRET melting assay; assay type: nucleic-acid assay
# [7] = system: SMMC-7721; assay: Antitumor activity against human SMMC-7721 cells xenografted in mouse model assessed as tumor growth inhibition at 20 mg/kg,ip administrated for 3 weeks; assay type: functional; details: SMMC-7721, 504 h
# [8] = system: Quadruplex DNA; assay: Thermal stabilization of c-MYC G-quadruplex DNA (unknown origin) assessed as change in melting temperature at 1:5 ratio by FRET melting assay; assay type: nucleic-acid assay
# [9] = system: HeLa; assay: Antiproliferative activity against human HeLa cells assessed as inhibition of cell growth by XTT assay; assay type: functional, cell-based
# [10] = system: A549; assay: Antiproliferative activity against human A549 cells assessed as inhibition of cell growth by XTT assay; assay type: functional, cell-based
# [11] = Antiproliferative activity against human Kidney epithelial cells assessed as inhibition of cell growth by XTT assay; assay type: toxicity, cell-based
# [12] = system: Quadruplex DNA; assay: Binding affinity to c-MYC G-quadruplex (Mer22) DNA (unknown origin) assessed as first order binding constant by isothermal titration calorimetry method; assay type: nucleic-acid assay
# [13] = system: Quadruplex DNA; assay: Binding affinity to c-MYC G-quadruplex (Mer22) DNA (unknown origin) assessed as second order binding constant by isothermal titration calorimetry method; assay type: nucleic-acid assay
# [14] = system: Quadruplex DNA; assay: Binding affinity to c-MYC G-quadruplex (Mer22) DNA (unknown origin) assessed as binding rate constant by surface plasmon resonance analysis; assay type: nucleic-acid assay
# [15] = system: Quadruplex DNA; assay: Thermal stabilization of c-MYC G-quadruplex (Mer22) DNA (unknown origin) assessed as change in melting temperature at 1:3 ratio by UV-Vis spectroscopy; assay type: nucleic-acid assay
# [16] = system: Quadruplex DNA; assay: Thermal stabilization of c-MYC G-quadruplex (Mer22) DNA (unknown origin) assessed as change in melting temperature at 1:3 ratio by FRET melting assay; assay type: nucleic-acid assay
# [17] = system: Quadruplex DNA; assay: Binding affinity to c-MYC G-quadruplex (Pu22) DNA (unknown origin) assessed as association rate constant by surface plasmon resonance analysis; assay type: nucleic-acid assay
# [18] = system: Quadruplex DNA; assay: Thermal stabilization of c-MYC G-quadruplex (Pu22) DNA (unknown origin) assessed as change in melting temperature at 1:1 ratio by circular dichroism spectroscopy; assay type: nucleic-acid assay
# [19] = system: L-363; assay: Cytotoxicity against human L-363 cells assessed as inhibition of cell viability incubated for 72 hrs by MTS assay; assay type: functional, cell-based; details: L-363, 72 h
# [20] = system: RPMI-8226; assay: Cytotoxicity against human RPMI-8226 cells assessed as inhibition of cell viability incubated for 72 hrs by MTS assay; assay type: functional, cell-based; details: RPMI-8226, 72 h
# [21] = Cytotoxicity against human ARD cells assessed as inhibition of cell viability incubated for 72 hrs by MTS assay; assay type: functional, cell-based
# [22] = Cytotoxicity against human JIM1 cells assessed as inhibition of cell viability incubated for 72 hrs by MTS assay; assay type: functional, cell-based; details: JIM1, 72 h
# [23] = Cytotoxicity against human KMM-1 cells assessed as inhibition of cell viability incubated for 72 hrs by MTS assay; assay type: functional, cell-based; details: KMM-1, 72 h
# [24] = system: LP-1; assay: Cytotoxicity against human LP-1 cells assessed as inhibition of cell viability incubated for 72 hrs by MTS assay; assay type: functional, cell-based; details: LP-1, 72 h
# [25] = system: KMS-12-PE; assay: Cytotoxicity against human KMS-12-PE cells assessed as inhibition of cell viability incubated for 72 hrs by MTS assay; assay type: functional, cell-based
# [26] = Cytotoxicity against human KMS-27 cells assessed as inhibition of cell viability incubated for 72 hrs by MTS assay; assay type: functional, cell-based; details: KMS-27, 72 h
# [27] = system: AMO1; assay: Cytotoxicity against human AMO1 cells assessed as inhibition of cell viability incubated for 72 hrs by MTS assay; assay type: functional, cell-based; details: AMO1, 72 h
# [28] = Cytotoxicity against human MOLP8 cells assessed as inhibition of cell viability incubated for 72 hrs by MTS assay; assay type: functional, cell-based; details: MOLP-8, 72 h
# [29] = system: Quadruplex DNA; assay: Binding affinity to c-MYC G-quadruplex DNA (unknown origin) assessed as association rate constant by UV-Vis spectroscopy; assay type: nucleic-acid assay
# [30] = system: Quadruplex DNA; assay: Thermal stabilization of c-MYC G-quadruplex DNA (unknown origin) assessed as change in melting temperature at 1:3 ratio by circular dichroism spectroscopy; assay type: nucleic-acid assay
# [31] = system: Quadruplex DNA; assay: Thermal stabilization of c-MYC G-quadruplex DNA (unknown origin) assessed as change in melting temperature at 1:2 ratio by circular dichroism spectroscopy; assay type: nucleic-acid assay
structure (smiles),measurement,setting,value
CN(C)CCCNC(=O)c1ccc(-n2cc(-c3ccc4[nH]c5ccc(-c6cn(-c7ccc(C(=O)NCCCN(C)C)cc7)nn6)cc5c4c3)nn2)cc1,ΔTm,[1],23.5 °C
same,ΔTm,[2],24 °C
Nc1nc(-c2ccccc2)c2c(n1)-c1cc(OCCN3CCCC3)ccc1C2=O,Ka,[3],1 10^5/M
same,ΔTm,[4],7.8 °C
c1cc2ccc3ccc4nc3c2nc1CNCCCCCCNC4,Ka,[5],1.4 10^5/M
same,ΔTm,[6],11.3 °C
same,ΔTm,[4],19.3 °C
CN(C)CCCNCCC(=O)Nc1ccc(C(=O)Nc2cc(Cl)ccc2-c2nc(NCCCN(C)C)c3ccccc3n2)cc1,inhibition in vivo at 20 mg/kg,[7],58.2%
CN(C)CCCNC(=O)c1csc(NC(=O)c2csc(NC(=O)c3csc(N)n3)n2)n1,Ka,[3],4 10^6/M
same,ΔTm,[8],22 °C
same,IC50,[9],3.8 µM
same,IC50,[10],3.2 µM
same,IC50,[11],> 50 µM
NCC1=C2CNC(=O)C3=CC(CN)=C(CNC(=O)c4cc(CN)c(o4)CNC(=O)C4=CC(CN)=C(CNC(=O)C(=C1)O2)O4)O3,K,[12],2.4 10^7/M
same,K,[13],1.86 10^6/M
same,K,[14],2.87 10^7/M
same,ΔTm,[15],18 °C
same,ΔTm,[16],18 °C
CC1=CC2(c3cc(C)ccn3)C(=O)C=C(c3ccc4ccccc4c3)N2C=C1 (stereo not drawn),Ka,[3],1 10^6/M
Cc1ccc(NC(=O)c2c(C)oc3ccc(O)c(CN4CCCCCC4)c23)cc1,Ka,[17],2.2 10^5/M
same,ΔTm,[18],2.1 °C
same,IC50,[19],5.8 µM
same,IC50,[20],15.9 µM
same,IC50,[21],12.9 µM
same,IC50,[22],14.1 µM
same,IC50,[23],15.6 µM
same,IC50,[24],8.3 µM
same,IC50,[25],6.5 µM
same,IC50,[26],9.6 µM
same,IC50,[27],11.3 µM
same,IC50,[28],8.3 µM
CN(C)CCn1c(NC(=O)c2ccc3ccc4ccc(C(=O)Nc5nc6ccccc6n5CCN(C)C)nc4c3n2)nc2ccccc21,Ka,[29],2.41 10^5/M
same,ΔTm,[30],19.6 °C
c1cc2ccc3ccc4nc3c2nc1CNCCCCCCNCc1ccc2ccc3ccc(nc3c2n1)CNCCCCCCNC4,Ka,[5],1.3 10^5/M
same,ΔTm,[6],17.2 °C
same,ΔTm,[4],15.1 °C
CN(C)c1ccc2cc3c([n+](CCCCCCCCNC(=O)c4ccc(I)cc4)c2c1)C=CCC3,Ka,[5],7.4 10^7/M
same,ΔTm,[31],33.9 °C
